Literature values as cited in patent US11426379B2, “Combination of local and systemic therapies for enhanced treatment of dermatologic conditions” (The Rockefeller University, priority 2017, dated 2022).

Tested on: rabbit skin
Conditions: intradermal injection, presence of light, reversible with beta-carotene

Q: For `O=C1OC2(c3cc(I)c(O)c(I)c3Oc3c2cc(I)c(O)c3I)c2c(Cl)c(Cl)c(Cl)c(Cl)c21` [rose bengal, 4,5,6,7-tetrachloro-2′,4′,5′,7′-tetraiodofluorescein], which “polymorphonuclear leukocyte accumulation, histamine release and erythema” value is on record?
A: polymorphonuclear leukocyte accumulation and histamine release with accompanying increased erythema
